Data published in patent US20050096323A1, “Diketopiperazine derivatives to inhibit thrombin” (NovoScience Pharma Inc., priority 1999, published 2005).
pKi: −log10 of the molar value. Counter-ions that a name gives are not always drawn.

Tests used:
[1] = biological target: T1, tissue plasminogen activator (tPA) (Homo sapiens, UniProt P00750); test: tPA inhibition constant (Ki), fluorogenic substrate assay; assay type: biochemical
T1 construct: purchased Sigma
Experimental: (§1) The activity and selectivity of the present invention can be identified by determination of the inhibition constant (Ki) for serine proteases such thrombin and trypsin and fibrinolytic enzymes such as urokinase, plasmin and tissue plasminogen activator (tPA). All of enzymes are purchased from Sigma. The general assay conditions are as follows. The fluorogenic substrates are dissolved in DMSO and diluted using assay buffer containing 50 mM Tris.HCl (pH 7.8 at 25° C.), 0.1 M NaCl and 0.1% polyethylene glycol 8000 (PEG 8000). […] The assays were conducted using Hitachi F2500 spectrophotometer under ambient temperature and at the excitation and emission wavelengths of 383 nm and 455 nm, respectively. The typical progressive data of the enzymatic assays are shown in FIGS. 1-3, and the determination of inhibition constant (Ki) is shown in FIG. 4.

urokinase = biological target: T2, urokinase (Homo sapiens, UniProt P00749); test: Urokinase inhibition constant (Ki), fluorogenic substrate assay; assay type: biochemical
T2 construct: purchased Sigma
Experimental: as §1

ICR mice [2] = test: Clotting time (CT) of mice whole blood after administration; assay type: in vivo
Experimental: Blood samples were collected using the capillary method 0.5 h and 1.5 h after i.v. injections and 1 h and 3 h after i.g. and clotting time of whole blood was measured.

ICR mice [3] = test: Acute toxicity, intravenous injection, determination of LD50; assay type: in vivo; settings: for Number of deaths: 10 mice
Text: 1) Determination of LD50 (Tables III and IV): ICR mice, 18 ˜20 g, were divided into five groups, with 10 animals in each group (half male and half female). The ratio of doses between groups was 1:0.85.

plasmin = biological target: T3, plasmin (Homo sapiens, UniProt P00747); test: Plasmin inhibition constant (Ki), fluorogenic substrate assay; assay type: biochemical
T3 construct: purchased Sigma
Experimental: as §1

T1 sequence (P00750 36-562, species assumed): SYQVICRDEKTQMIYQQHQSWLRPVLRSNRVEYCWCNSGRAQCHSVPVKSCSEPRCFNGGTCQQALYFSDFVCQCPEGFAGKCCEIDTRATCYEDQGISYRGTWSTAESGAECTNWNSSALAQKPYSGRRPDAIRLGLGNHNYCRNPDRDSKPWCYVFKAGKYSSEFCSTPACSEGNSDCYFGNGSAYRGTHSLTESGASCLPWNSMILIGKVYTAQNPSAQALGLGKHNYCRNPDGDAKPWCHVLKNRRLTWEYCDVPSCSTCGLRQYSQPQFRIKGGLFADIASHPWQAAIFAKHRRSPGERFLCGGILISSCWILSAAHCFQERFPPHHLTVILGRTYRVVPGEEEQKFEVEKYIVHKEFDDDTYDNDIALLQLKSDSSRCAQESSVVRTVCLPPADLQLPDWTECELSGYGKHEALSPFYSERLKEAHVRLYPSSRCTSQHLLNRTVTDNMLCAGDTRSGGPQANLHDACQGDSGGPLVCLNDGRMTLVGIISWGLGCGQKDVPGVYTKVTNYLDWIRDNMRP
T3 sequence (P00747 581-810 limits assumed, species assumed): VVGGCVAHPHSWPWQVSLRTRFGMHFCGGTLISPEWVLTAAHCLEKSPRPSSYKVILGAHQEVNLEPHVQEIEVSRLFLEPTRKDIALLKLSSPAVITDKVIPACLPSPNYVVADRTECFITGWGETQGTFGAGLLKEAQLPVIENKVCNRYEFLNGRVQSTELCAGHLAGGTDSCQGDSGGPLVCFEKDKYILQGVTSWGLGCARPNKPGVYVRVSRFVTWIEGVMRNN
T3 sequence (P00747 97-580 partner limits assumed, species assumed): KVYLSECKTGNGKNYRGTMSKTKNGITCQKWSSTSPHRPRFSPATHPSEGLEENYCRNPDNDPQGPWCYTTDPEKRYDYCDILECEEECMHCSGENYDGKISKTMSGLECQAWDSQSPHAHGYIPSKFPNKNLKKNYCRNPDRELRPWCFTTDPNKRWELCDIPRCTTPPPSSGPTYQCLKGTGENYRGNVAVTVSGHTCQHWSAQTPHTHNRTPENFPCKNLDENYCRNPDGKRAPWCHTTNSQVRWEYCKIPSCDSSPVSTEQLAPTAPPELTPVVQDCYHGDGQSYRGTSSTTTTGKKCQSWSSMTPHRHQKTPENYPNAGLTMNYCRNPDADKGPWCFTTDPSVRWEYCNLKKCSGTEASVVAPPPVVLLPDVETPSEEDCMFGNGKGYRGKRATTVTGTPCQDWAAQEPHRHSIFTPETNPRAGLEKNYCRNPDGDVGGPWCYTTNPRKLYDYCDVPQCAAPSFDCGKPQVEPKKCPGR

Q: What does the source list for `CC1CNc2c(cccc2S(=O)(=O)N2C(=O)C3CC(C)CCN3C(=O)C2CCCNC(=N)N)C1` [NPI1999, (3S,6R,8R)-Bicyclo[4.4.0]-1,4-diaza-3-(3-guanidinopropyl)-4-N-(1,2,3,4-tetrahydro-3-methyl-8-quinolinesulfonyl)-8-methyl-2,5-decanedione, hydrochoride salt]?
A: Cycloargatroban [Ki (Enzyme)/Ki (Thrombin)] vs. Argatroban [Ki (Enzyme)/Ki (Thrombin)] ([1]; enzyme = tPA): +1.2 fold; pKi ([1]; substrate Boc-L-(p-F) FPR-ANSNH-C2H5): 2.69; Cycloargatroban [Ki (Enzyme)/Ki (Thrombin)] vs. Argatroban [Ki (Enzyme)/Ki (Thrombin)] (urokinase; enzyme = urokinase): −0.14 fold; pKi (urokinase; substrate N-Cbz-Gly-Gly-Arg-AMC): 3.53; CT (clotting time of whole blood) (ICR mice [2]; 0.25 mg/kg i.v. group, before administration): 128.53 ± 27.14; CT (clotting time of whole blood) (ICR mice [2]; 0.25 mg/kg i.v., 0.5 h): 140.02 ± 26.40; CT (clotting time of whole blood) (ICR mice [2]; 0.25 mg/kg i.v., 1.5 h): 139.88 ± 30.40; CT (clotting time of whole blood) (ICR mice [2]; 0.5 mg/kg i.v. group, before administration): 125.53 ± 25.03; CT (clotting time of whole blood) (ICR mice [2]; 0.5 mg/kg i.v., 0.5 h): 172.88 ± 34.26; CT (clotting time of whole blood) (ICR mice [2]; 0.5 mg/kg i.v., 1.5 h): 161.76 ± 40.10; CT (clotting time of whole blood) (ICR mice [2]; 1 mg/kg i.v. group, before administration): 124.06 ± 28.96; CT (clotting time of whole blood) (ICR mice [2]; 1 mg/kg i.v., 0.5 h): 165.12 ± 30.57; CT (clotting time of whole blood) (ICR mice [2]; 1 mg/kg i.v., 1.5 h): 163.62 ± 44.26; CT (clotting time of whole blood) (ICR mice [2]; 75 mg/kg i.g. group, before administration): 126.11 ± 22.83; CT (clotting time of whole blood) (ICR mice [2]; 75 mg/kg i.g., 1 h): 133.11 ± 29.00; CT (clotting time of whole blood) (ICR mice [2]; 75 mg/kg i.g., 3.0 h): 119.39 ± 25.88; CT (clotting time of whole blood) (ICR mice [2]; 150 mg/kg i.g. group, before administration): 125.50 ± 23.67; CT (clotting time of whole blood) (ICR mice [2]; 150 mg/kg i.g., 1 h): 128.06 ± 30.03; CT (clotting time of whole blood) (ICR mice [2]; 150 mg/kg i.g., 3.0 h): 119.44 ± 26.01; clotting time compared to controls (ICR mice [2]; i.g. 75 mg/kg and 150 mg/kg, 1 h and 3 h): No significant difference; clotting time compared to controls (ICR mice [2]; i.v. 0.5 mg/kg and 1 mg/kg, 0.5 h and 1.5 h): significantly prolonged; Death rate (%) (ICR mice [3]; i.v. 7.83 mg/kg): 0%; Number of deaths (ICR mice [3]; i.v. 7.83 mg/kg): 0; Number of death (ICR mice [3]; i.v. 7.83 mg/kg, ♀, 4-13 days after administration): 0; Number of death (ICR mice [3]; i.v. 7.83 mg/kg, ♀, 1 day after administration): 0; Number of death (ICR mice [3]; i.v. 7.83 mg/kg, ♀, 2 days after administration): 0; Number of death (ICR mice [3]; i.v. 7.83 mg/kg, ♀, 3 days after administration): 0; Number of death (ICR mice [3]; i.v. 7.83 mg/kg, ♀, day of administration): 0; Number of death (ICR mice [3]; i.v. 7.83 mg/kg, ♂, 4-13 days after administration): 0; Number of death (ICR mice [3]; i.v. 7.83 mg/kg, ♂, 1 day after administration): 0; Number of death (ICR mice [3]; i.v. 7.83 mg/kg, ♂, 2 days after administration): 0; Number of death (ICR mice [3]; i.v. 7.83 mg/kg, ♂, 3 days after administration): 0; Number of death (ICR mice [3]; i.v. 7.83 mg/kg, ♂, day of administration): 0; Death rate (%) (ICR mice [3]; i.v. 9.21 mg/kg): 30%; Number of deaths (ICR mice [3]; i.v. 9.21 mg/kg): 3; Number of death (ICR mice [3]; i.v. 9.21 mg/kg, ♀, 4-13 days after administration): 0; Number of death (ICR mice [3]; i.v. 9.21 mg/kg, ♀, 1 day after administration): 0; Number of death (ICR mice [3]; i.v. 9.21 mg/kg, ♀, 2 days after administration): 0; Number of death (ICR mice [3]; i.v. 9.21 mg/kg, ♀, 3 days after administration): 0; Number of death (ICR mice [3]; i.v. 9.21 mg/kg, ♀, day of administration): 2; Number of death (ICR mice [3]; i.v. 9.21 mg/kg, ♂, 4-13 days after administration): 0; Number of death (ICR mice [3]; i.v. 9.21 mg/kg, ♂, 1 day after administration): 0; Number of death (ICR mice [3]; i.v. 9.21 mg/kg, ♂, 2 days after administration): 0; Number of death (ICR mice [3]; i.v. 9.21 mg/kg, ♂, 3 days after administration): 0; Number of death (ICR mice [3]; i.v. 9.21 mg/kg, ♂, day of administration): 1; Death rate (%) (ICR mice [3]; i.v. 10.84 mg/kg): 50%; Number of deaths (ICR mice [3]; i.v. 10.84 mg/kg): 5; Number of death (ICR mice [3]; i.v. 10.84 mg/kg, ♀, 4-13 days after administration): 0; Number of death (ICR mice [3]; i.v. 10.84 mg/kg, ♀, 1 day after administration): 0; Number of death (ICR mice [3]; i.v. 10.84 mg/kg, ♀, 2 days after administration): 0; Number of death (ICR mice [3]; i.v. 10.84 mg/kg, ♀, 3 days after administration): 0; Number of death (ICR mice [3]; i.v. 10.84 mg/kg, ♀, day of administration): 3; Number of death (ICR mice [3]; i.v. 10.84 mg/kg, ♂, 4-13 days after administration): 0; Number of death (ICR mice [3]; i.v. 10.84 mg/kg, ♂, 1 day after administration): 0; Number of death (ICR mice [3]; i.v. 10.84 mg/kg, ♂, 2 days after administration): 0; Number of death (ICR mice [3]; i.v. 10.84 mg/kg, ♂, 3 days after administration): 0; Number of death (ICR mice [3]; i.v. 10.84 mg/kg, ♂, day of administration): 2; Death rate (%) (ICR mice [3]; i.v. 12.75 mg/kg): 80%; Number of deaths (ICR mice [3]; i.v. 12.75 mg/kg): 8; Number of death (ICR mice [3]; i.v. 12.75 mg/kg, ♀, 4-13 days after administration): 0; Number of death (ICR mice [3]; i.v. 12.75 mg/kg, ♀, 1 day after administration): 0; Number of death (ICR mice [3]; i.v. 12.75 mg/kg, ♀, 2 days after administration): 0; Number of death (ICR mice [3]; i.v. 12.75 mg/kg, ♀, 3 days after administration): 0; Number of death (ICR mice [3]; i.v. 12.75 mg/kg, ♀, day of administration): 4; Number of death (ICR mice [3]; i.v. 12.75 mg/kg, ♂, 4-13 days after administration): 0; Number of death (ICR mice [3]; i.v. 12.75 mg/kg, ♂, 1 day after administration): 0; Number of death (ICR mice [3]; i.v. 12.75 mg/kg, ♂, 2 days after administration): 0; Number of death (ICR mice [3]; i.v. 12.75 mg/kg, ♂, 3 days after administration): 0; Number of death (ICR mice [3]; i.v. 12.75 mg/kg, ♂, day of administration): 4; Death rate (%) (ICR mice [3]; i.v. 15.00 mg/kg): 90%; Number of deaths (ICR mice [3]; i.v. 15.00 mg/kg): 9; Number of death (ICR mice [3]; i.v. 15.00 mg/kg, ♀, 4-13 days after administration): 0; Number of death (ICR mice [3]; i.v. 15.00 mg/kg, ♀, 1 day after administration): 0; Number of death (ICR mice [3]; i.v. 15.00 mg/kg, ♀, 2 days after administration): 0; Number of death (ICR mice [3]; i.v. 15.00 mg/kg, ♀, 3 days after administration): 0; Number of death (ICR mice [3]; i.v. 15.00 mg/kg, ♀, day of administration): 4; Number of death (ICR mice [3]; i.v. 15.00 mg/kg, ♂, 4-13 days after administration): 0; Number of death (ICR mice [3]; i.v. 15.00 mg/kg, ♂, 1 day after administration): 0; Number of death (ICR mice [3]; i.v. 15.00 mg/kg, ♂, 2 days after administration): 0; Number of death (ICR mice [3]; i.v. 15.00 mg/kg, ♂, 3 days after administration): 0; Number of death (ICR mice [3]; i.v. 15.00 mg/kg, ♂, day of administration): 5; Cycloargatroban [Ki (Enzyme)/Ki (Thrombin)] vs. Argatroban [Ki (Enzyme)/Ki (Thrombin)] (plasmin; enzyme = plasmin): −0.67 fold; pKi (plasmin; substrate D-Ala-Leu-Lys-AMC): 3.28
